Literature values as cited in US20210046025A1, “Injection for Protecting Ischemic Myocardium and Preparation Method thereof” (priority 2018, published 2021).

Legend:
[1] = test system: ischemia/reperfusion myocardial infarction; conditions: large animal models, clinically relevant reperfusion (Min Xie et al., Circulation 2014)
[2] = first-pass metabolism elimination

## O=C(CCCCCCC(=O)Nc1ccccc1)NO [N-suberoylanilide hydroxamic acid]
[1]
  Effect on myocardial infarction area: reduce myocardial infarction area
other
  Solubility in oil and water: insoluble in both oil and water
  Water solubility: poor
[2]
  Oral bioavailability: very low
